Test results published in PubChem BioAssay AID248 (DTP/NCI, 2004).
Values joined by “and” are separate entries in the source; they are usually repeats but may differ in a detail not shown here. Identical values can stand only once. Inconclusive results and toxic doses are left out. Bridge positions count the residues as written; N and C are the ends. Peptide text beside a SMILES is read from it. I, II: the chains in the order shown.

System: L1210 leukemia ip in BDF1 mice, survival T/C
Assay: NCI In Vivo Anticancer Drug Screen. Data for tumor model L1210 Leukemia (intraperitoneal) in B6D2F1 (BDF1) mice
Settings: endpoint: mean survival time, higher = longer survival
Method in brief: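 Antitumor effect is assessed in tumor-bearing animals. Survival in the compound arm is compared with a vehicle-dosed control arm and expressed as their quotient.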

[1] = dose: 100.0 mg/kg/injection, schedule: Q01DX001 (ip), vehicle: saline
[2] = dose: 200.0 mg/kg/injection, schedule: Q01DX001 (ip), vehicle: saline
[3] = dose: 400.0 mg/kg/injection, schedule: Q01DX001 (ip), vehicle: saline
[4] = dose: 100.0 mg/kg/injection, schedule: Q04DX003 (sc), vehicle: steriod suspending solution
[5] = dose: 200.0 mg/kg/injection, schedule: Q04DX003 (sc), vehicle: steriod suspending solution
[6] = dose: 400.0 mg/kg/injection, schedule: Q04DX003 (sc), vehicle: steriod suspending solution
[7] = dose: 100.0 mg/kg/injection, schedule: Q01DX001 (ip), vehicle: Klucel (hydroxypropylcellulose) (HPC)
[8] = dose: 200.0 mg/kg/injection, schedule: Q01DX001 (ip), vehicle: Klucel (hydroxypropylcellulose) (HPC)
[9] = dose: 400.0 mg/kg/injection, schedule: Q01DX001 (ip), vehicle: Klucel (hydroxypropylcellulose) (HPC)
[10] = dose: 50.0 mg/kg/injection, schedule: Q01DX009 (ip), vehicle: saline with Tween-80
[11] = dose: 100.0 mg/kg/injection, schedule: Q01DX009 (ip), vehicle: saline with Tween-80
[12] = dose: 100.0 mg/kg/injection, schedule: Q04DX002 (ip), vehicle: saline with Tween-80
[13] = dose: 200.0 mg/kg/injection, schedule: Q01DX009 (ip), vehicle: saline with Tween-80
[14] = dose: 200.0 mg/kg/injection, schedule: Q04DX002 (ip), vehicle: saline with Tween-80
[15] = dose: 100.0 mg/kg/injection, schedule: Q01DX009 (ip), vehicle: Klucel (hydroxypropylcellulose) (HPC)
[16] = dose: 200.0 mg/kg/injection, schedule: Q01DX009 (ip), vehicle: Klucel (hydroxypropylcellulose) (HPC)
[17] = dose: 100.0 mg/kg/injection, schedule: Q04DX002 (ip), vehicle: Klucel (hydroxypropylcellulose) (HPC)
[18] = dose: 200.0 mg/kg/injection, schedule: Q04DX002 (ip), vehicle: Klucel (hydroxypropylcellulose) (HPC)
[19] = dose: 400.0 mg/kg/injection, schedule: Q04DX002 (ip), vehicle: Klucel (hydroxypropylcellulose) (HPC)
[20] = dose: 100.0 mg/kg/injection, schedule: Q04DX003 (ip), vehicle: saline with Tween-80
[21] = dose: 200.0 mg/kg/injection, schedule: Q04DX003 (ip), vehicle: saline with Tween-80
[22] = dose: 100.0 mg/kg/injection, schedule: Q04DX003 (ip), vehicle: Klucel (hydroxypropylcellulose) (HPC)
[23] = dose: 200.0 mg/kg/injection, schedule: Q04DX003 (ip), vehicle: Klucel (hydroxypropylcellulose) (HPC)

SMILES: Cc1nn(C2CC(O)C(CO)O2)c(=O)[nH]c1=O (stereo unspecified)
- T/C [1]: 98 % of control
- T/C [2]: 95 % of control
- T/C [3]: 93 % of control

SMILES: CN(CCO)N=Nc1ccccc1
- T/C (dose: 6.0 mg/kg/injection, schedule: Q01DX009 (ip), vehicle: other): 105 % of control
- T/C (dose: 12.0 mg/kg/injection, schedule: Q01DX009 (ip), vehicle: other): 96 % of control
- T/C (dose: 12.5 mg/kg/injection, schedule: Q01DX009 (ip), vehicle: other): 112 % of control
- T/C (dose: 18.0 mg/kg/injection, schedule: Q01DX009 (ip), vehicle: other): 88 % of control
- T/C (dose: 25.0 mg/kg/injection, schedule: Q01DX009 (ip), vehicle: other): 109 % of control

SMILES: COc1ccccc1C1CCCCC1OS(C)(=O)=O (stereo unspecified)
- T/C (dose: 100.0 mg/kg/injection, schedule: Q01DX001 (ip), vehicle: carboxymethylcellulose (CMC)): 103 % of control
- T/C (dose: 200.0 mg/kg/injection, schedule: Q01DX001 (ip), vehicle: carboxymethylcellulose (CMC)): 111 % of control
- T/C (dose: 400.0 mg/kg/injection, schedule: Q01DX001 (ip), vehicle: carboxymethylcellulose (CMC)): 92 % of control

SMILES: NC(CSc1ccc(Cl)cc1)C(=O)O (stereo unspecified)
- T/C [4]: 86 % of control
- T/C [5]: 86 % of control
- T/C [6]: 92 % of control

SMILES: O=c1cc[nH]c2n[nH]nc12
- T/C [7]: 94 % of control
- T/C [8]: 94 % of control
- T/C [9]: 96 % of control

SMILES: CN(C)OC(=O)Nc1cccc(C(=O)ON(C)C)c1
- T/C (dose: 100.0 mg/kg/injection, schedule: Q04DX002 (ip), vehicle: DMSO): 99 % of control
- T/C (dose: 200.0 mg/kg/injection, schedule: Q04DX002 (ip), vehicle: DMSO): 101 % of control
- T/C (dose: 400.0 mg/kg/injection, schedule: Q04DX002 (ip), vehicle: DMSO): 101 % of control

SMILES: O=C(O)/C=C/Sc1ccc(Cl)cc1
- T/C [10]: 94 % of control
- T/C [11]: 94 % of control
- T/C [12]: 95 % of control
- T/C [13]: 94 % of control
- T/C [14]: 92 % of control

SMILES: C(=N\Nc1ccccc1)/c1cccc[n+]1Cc1ccccc1
- T/C (dose: 75.0 mg/kg/injection, schedule: Q01DX001 (ip), vehicle: other): 95 % of control
- T/C (dose: 150.0 mg/kg/injection, schedule: Q01DX001 (ip), vehicle: other): 96 % of control

SMILES: O=C(NCCCCCCCNC(=O)Nc1ccc(C2=NCCN2)cc1)Nc1ccc(C2=NCCN2)cc1
- T/C (dose: 62.0 mg/kg/injection, schedule: Q01DX Z (ip), vehicle: carboxymethylcellulose (CMC)): 107 % of control
- T/C (dose: 125.0 mg/kg/injection, schedule: Q01DX Z (ip), vehicle: carboxymethylcellulose (CMC)): 98 % of control
- T/C (dose: 250.0 mg/kg/injection, schedule: Q01DX Z (ip), vehicle: carboxymethylcellulose (CMC)): 98 % of control

SMILES: COCCCCO
- T/C [10]: 97 % of control
- T/C [11]: 97 % of control
- T/C [13]: 90 % of control

SMILES: CCOC(=O)N/N=C(\C)c1ccc(OC)cc1
- T/C [15]: 98 % of control
- T/C [16]: 112 % of control

SMILES: Cc1ccc(NSC(Cl)(Cl)Cl)cc1
- T/C (dose: 50.0 mg/kg/injection, schedule: Q04DX002 (ip), vehicle: saline with Tween-80): 101 % of control
- T/C [12]: 106 % of control and 108 % of control
- T/C [14]: 98 % of control and 123 % of control

SMILES: CC(=O)OC1CCC2(C)C(CCC3C4CC=C(C(C)=O)C4(C)CCC32)C1 (stereo unspecified)
- T/C (dose: 100.0 mg/kg/injection, schedule: Q01DX009 (sc), vehicle: steriod suspending solution): 94 % of control
- T/C [4]: 115 % of control
- T/C (dose: 200.0 mg/kg/injection, schedule: Q01DX009 (sc), vehicle: steriod suspending solution): 109 % of control
- T/C [5]: 103 % of control
- T/C (dose: 400.0 mg/kg/injection, schedule: Q01DX009 (sc), vehicle: steriod suspending solution): 98 % of control
- T/C [6]: 105 % of control

SMILES: Cc1ccccc1-n1cccc1C(=O)O
- T/C [17]: 89 % of control
- T/C [18]: 96 % of control
- T/C [19]: 86 % of control

SMILES: O=C(OCc1ccccc1)c1cc(I)c(OCc2ccccc2)c(I)c1
- T/C [1]: 98 % of control
- T/C [2]: 98 % of control
- T/C [3]: 98 % of control

SMILES: NCC(=O)NC(CSSCC(NC(=O)CN)C(=O)O)C(=O)O (stereo not drawn) (I: H-Gly-Cys-OH / II: H-Gly-Cys-OH; disulfide I:2-II:2; configuration not given here)
- T/C (dose: 75.0 mg/kg/injection, schedule: Q01DX001 (ip), vehicle: saline): 99 % of control
- T/C (dose: 150.0 mg/kg/injection, schedule: Q01DX001 (ip), vehicle: saline): 102 % of control
- T/C (dose: 300.0 mg/kg/injection, schedule: Q01DX001 (ip), vehicle: saline): 100 % of control

SMILES: CCOC(Nc1cc(Cl)ccc1Cl)C(=O)c1ccccc1 (stereo unspecified)
- T/C [1]: 97 % of control
- T/C [2]: 100 % of control
- T/C [3]: 96 % of control

SMILES: COc1cc2ccc(/C(C)=N/OC(C)=O)cc2cc1OC
- T/C [20]: 100 % of control
- T/C [21]: 100 % of control
- T/C (dose: 400.0 mg/kg/injection, schedule: Q04DX003 (ip), vehicle: saline with Tween-80): 106 % of control

SMILES: COc1ccc(S(=O)O)cc1NC(C)=O
- T/C [1]: 105 % of control
- T/C (dose: 100.0 mg/kg/injection, schedule: Q01DX009 (ip), vehicle: saline): 94 % of control
- T/C (dose: 100.0 mg/kg/injection, schedule: Q04DX003 (ip), vehicle: saline): 92 % of control and 100 % of control
- T/C [2]: 96 % of control
- T/C (dose: 200.0 mg/kg/injection, schedule: Q01DX009 (ip), vehicle: saline): 87 % of control
- T/C (dose: 200.0 mg/kg/injection, schedule: Q04DX003 (ip), vehicle: saline): 93 % of control and 95 % of control
- T/C [3]: 98 % of control
- T/C (dose: 400.0 mg/kg/injection, schedule: Q01DX009 (ip), vehicle: saline): 86 % of control
- T/C (dose: 400.0 mg/kg/injection, schedule: Q04DX003 (ip), vehicle: saline): 91 % of control and 93 % of control

SMILES: CC(C)=CCN(CC=C(C)C)CCC(O)(Cc1ccccc1)c1ccccc1 (stereo unspecified)
- T/C (dose: 50.0 mg/kg/injection, schedule: Q01DX009 (ip), vehicle: Klucel (hydroxypropylcellulose) (HPC)): 88 % of control
- T/C [15]: 109 % of control
- T/C [22]: 97 % of control
- T/C [16]: 90 % of control
- T/C [23]: 95 % of control

SMILES: Cc1ccc(N=Nc2ccccn2)cc1
- T/C [17]: 104 % of control
- T/C [18]: 93 % of control
- T/C [19]: 93 % of control

SMILES: CN1C2CC(=O)CC1C(O)C2 (stereo unspecified)
- T/C [1]: 103 % of control
- T/C [3]: 90 % of control

SMILES: C1CCCC2(CC1)CCCCC2
- T/C (dose: 75.0 mg/kg/injection, schedule: Q01DX001 (ip), vehicle: saline with Tween-80): 94 % of control
- T/C (dose: 150.0 mg/kg/injection, schedule: Q01DX001 (ip), vehicle: saline with Tween-80): 90 % of control
- T/C (dose: 300.0 mg/kg/injection, schedule: Q01DX001 (ip), vehicle: saline with Tween-80): 95 % of control

SMILES: CN(C)CC(OCCCc1ccccc1)C(Cl)(Cl)Cl (stereo unspecified)
- T/C [20]: 109 % of control
- T/C [21]: 101 % of control

SMILES: CCOC(=O)NOP(=O)(N1CC1(C)C)N1CC1(C)C (stereo unspecified)
- T/C (dose: 100.0 mg/kg/injection, schedule: Q04DX002 (ip), vehicle: saline): 207 % of control
- T/C (dose: 200.0 mg/kg/injection, schedule: Q04DX002 (ip), vehicle: saline): 86 % of control

SMILES: C=C(C)C1CCC(C)=CC1c1c(OC(=O)c2cc([N+](=O)[O-])cc([N+](=O)[O-])c2)cc(CCCCC)cc1OC(=O)c1cc([N+](=O)[O-])cc([N+](=O)[O-])c1 (stereo unspecified)
- T/C [7]: 92 % of control
- T/C [8]: 91 % of control
- T/C [9]: 92 % of control

SMILES: S=C(N/N=C/c1ccc2c(c1)CCC2)Nc1ccccc1
- T/C [22]: 103 % of control
- T/C [23]: 92 % of control
- T/C (dose: 400.0 mg/kg/injection, schedule: Q04DX003 (ip), vehicle: Klucel (hydroxypropylcellulose) (HPC)): 100 % of control
